In patent US20130066264A1, “SUGAR-RESPONSIVE GEL AND MEDICINE ADMINISTERING DEVICE” (NATIONAL INSTITUTE FOR MATERIALS SCIENCE, priority 2010, published 2013):

Details: acid-base titration, FIG. 2
Excerpt: Next, for the sample 1, the comparative sample 1 and the comparative sample 2, the relationships between glucose concentrations and apparent changes in pKa were derived by acid-base titration in the conditions of various glucose concentrations (0 g/L, 1 g/L, 3 g/L, 5 g/L and g/L).

C=CC(=O)NCCNC(=O)c1ccc(B(O)O)cc1F [sample 1, 4-(2-acrylamideethylcarbamoyl)-3-fluorophenylboronic acid]
apparent pKa (glucose 0 g/L, 1 g/L, 3 g/L, 5 g/L and g/L (samples a1 to a5)): < 7.4 | degree of decrease in pKa according to the increase in concentration of glucose, versus comparative samples 1 and 2 (various glucose concentrations): remarkably superior
